For 18 compounds, IC50 results are on record in patent publication US12291516B2, “Substituted 1-amino-1H-imidazole-5-carboxamide as Bruton's tyrosine kinase inhibitors” (Henan Zhiwei Biomedicine Co., Ltd., priority 2019, dated 2025).

The target in experiment [1] is T1, BTK (Homo sapiens (Human), UniProt Q06187). The experiment in a line: In house ELISA kinase inhibition assay, BTK. As to conditions: footnote b: from in house procedure (ELISA). It counts as biochemical. Here is the method: (§1) BTK inhibition Assay and selectivity Assay The assay was conducted either a by a third party (Reaction Biology Corporation, PA, USA) or in house.
T1 sequence (Q06187 whole entry): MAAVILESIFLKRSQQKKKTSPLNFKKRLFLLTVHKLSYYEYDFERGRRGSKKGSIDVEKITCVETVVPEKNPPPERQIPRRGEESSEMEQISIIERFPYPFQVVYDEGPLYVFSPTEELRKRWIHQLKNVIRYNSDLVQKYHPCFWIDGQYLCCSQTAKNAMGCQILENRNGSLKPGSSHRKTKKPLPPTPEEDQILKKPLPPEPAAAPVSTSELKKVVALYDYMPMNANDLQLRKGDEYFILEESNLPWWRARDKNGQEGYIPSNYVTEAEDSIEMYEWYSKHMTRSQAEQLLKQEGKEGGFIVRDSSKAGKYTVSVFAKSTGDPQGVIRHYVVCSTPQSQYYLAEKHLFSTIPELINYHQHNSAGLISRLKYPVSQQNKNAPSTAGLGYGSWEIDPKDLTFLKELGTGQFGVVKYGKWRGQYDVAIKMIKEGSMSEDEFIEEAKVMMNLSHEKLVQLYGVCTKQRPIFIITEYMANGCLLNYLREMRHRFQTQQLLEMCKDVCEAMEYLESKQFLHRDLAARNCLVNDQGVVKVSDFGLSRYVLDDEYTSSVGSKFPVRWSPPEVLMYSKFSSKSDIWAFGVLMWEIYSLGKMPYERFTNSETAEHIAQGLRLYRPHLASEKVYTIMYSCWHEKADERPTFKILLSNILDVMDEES
b) In House Procedure for BTK, BMX, EGFR and ITK:
Kinase inhibitory activities of compounds were evaluated using the Enzyme-linked immunosorbent assay (ELISA). The kinase enzyme of BTK, BMX, EGFR and ITK were purchased from Carna Bioscience (Kobe, Japan). A total of 10 ng/mL antiphosphotyrosine (PY713) antibody (abcam, Cambridge Science Park, UK) was precoated in 96-well ELISA plates. The kinase enzymes in each reaction well were set to BTK (101.25 ng/mL), BMX (90 ng/mL), EGFR (90 ng/mL) or ITK (120 ng/mL) and incubated with indicated drugs in 1× reaction buffer (50 mmol/L HEPES pH 7.4, 20 mmol/L MgCl2, 0.1 mmol/L MnCl2, 1 mmol/L DTT) containing 20 μmol/L (the final concentration of substrate in ITK reaction was 30 μmol/L) substrate (NH2-[…]-biotin) at 25° C. for 1 h. Then, a total of 3 μmol/L ATP was added and the reaction was continued for 2 h. The products of reaction were transferred into 96-well ELISA plates containing antibody and incubated at 25° C. for 30 min. After incubation, the wells were washed with PBS and then incubated with horseradish peroxidase (HRP)-conjugated streptavidin. The wells were visualized using 3,3′,5,5′-tetramethylbenzidine (TMB), and chromogenic reaction was ended with 2 mol/L H2SO4, the absorbance was read with a multimode plate reader (PerkinElmer, USA) at 450 nm. IC50 values and curve fits were obtained using Prism (GraphPad Software). (Table I-IV)

Experiment [2] deals with T1, BTK. Put plainly: BTK inhibition assay by Reaction Biology Corporation (33P-ATP, filter-binding). It counts as biochemical. The settings on record: footnote a: from Reaction Biology Corporation. The protocol: as §1
a) Reagent and Procedure by Reaction Biology Corporation:
Base Reaction buffer; 20 mM Hepes (pH 7.5), 10 mM MgCl2, 1 mM EGTA, 0.02%. Brij35, 0.02 mg/ml BSA, 0.1 mM Na3VO4, 2 mM DTT, 1% DMSO. Required cofactors were added individually to each kinase reaction. Compound handling: testing compounds were dissolved in 100% DMSO to specific concentration. The serial dilution was conducted by Integra Viaflo Assist in DMSO.
The substrate was prepared in freshly prepared reaction buffer of above and required cofactors were added to the substrate solution. The kinase was delivered to the substrate solution and the mixture was gently mixed. Testing compounds in 100% DMSO was added to the kinase reaction mixture by Acoustic technology (Echo550; nanoliter range) and the new mixture was incubated for 20 min at room temperature. Then ^33P-ATP (Specific activity 10 μCi/μl) was added to the reaction mixture to initiate the reaction and the mixture was incubated for 2 hours at room temperature. The radioactivity was detected by filter-binding method and the kinase activity data was expressed as the percent of remaining kinase activity in test sample compared to vehicle (dimethyl sulfoxide) reaction. IC50 values and curve fits were obtained using Prism (GraphPad Software). The result is outlined in Table-I

A further experiment relates to TMD-8. The experiment in a line: In-vitro antitumor activity assay (CellTiter-Glo cell antiproliferative activity). It counts as cell-based. As to conditions: Homo sapiens, TMD8, TMD-8 cells, 72 h. Here is the method: In-Vitro Antitumor Activity Assay
Method: Reagent and procedure by Hefei PreceDo pharmaceuticals Co. Ltd.
Cell antiproliferative activity was evaluated by the CellTiter-Glo (Promega, USA) assay. Make 1000× compounds solution in DMSO, add 1 μl 1000× compounds to […] growth medium to make 20× compounds. Dilute cell suspensions in growth medium to desired density and 95 μl were taken to 96-well plate. Add 5 μl 20× compounds into 96-well plate according to the plate map. Final DMSO concentration in each well was 0.1%. Then the cell was incubated at 37° C., 5% CO2 for 72 h. Equilibrate the assay plate to room temperature before measurement. Add 20 μl of CellTiter-Glo© Reagent into each well. Mix contents for 2 minutes on an orbital shaker to induce cell lysis. Incubate at room temperature for 10 minutes to stabilize luminescent signal. Record luminescence using EnVision Multilabel Reader (PerkinElmer). Cell viability (CV %) was calculated relative to vehicle (DMSO) treated control wells using following formula: Cell viability (%)=(RLU compound−RLU blank)/(RLU control−RLU blank)*100%. The IC50 values were calculated using GraphPad Prism 6.0 software, fitting to a 4-parameter equation to generate concentration response curves. All assays were conducted with three parallel samples and three repetitions.
On the technique in general: In ATP-based viability assays light output follows the ATP content of the culture.

For orientation: IC50 means the concentration at which inhibition is half-maximal. A lower IC50 goes with higher potency.

SMILES strings stand for the structures.

For `C=CC(=O)N1CCC[C@H]1c1nc(-c2ccc(C(=O)Nc3ccccn3)cc2)c(C(N)=O)n1N` [Example 1, (S)-2-(1-acryloylpyrrolidin-2-yl)-1-amino-4-(4-(pyridin-2-yl-carbamoyl)phenyl)-1H-imidazole-5-carboxamide], the IC50 came out at 176 nM against BTK [1] and 131 nM at BTK [2].

In the case of `C#CC(=O)N1CCC[C@H]1c1nc(-c2ccc(C(=O)Nc3cc(C)ccn3)cc2)c(C(N)=O)n1N` [Example 17, (S)-1-amino-4-(4-((4-methylpyridin-2-yl)carbamoyl)phenyl)-2-(1-propioloylpyrrolidin-2-yl)-1H-imidazole-5-carboxamide], the IC50 amounted to 30.3 nM against BTK [1] and 24.4 nM on BTK [2].

Turning to `CC#CC(=O)N1CCC[C@H]1c1nc(-c2ccc(C(=O)Nc3cc(C)ccn3)cc2)c(C(N)=O)n1N` [Example 18, (S)-1-amino-2-(1-(but-2-ynoyl)pyrrolidin-2-yl)-4-(4-((4-methylpyridin-2-yl)carbamoyl)phenyl)-1H-imidazole-5-carboxamide], the IC50 was found to be 3080 nM against BTK [1] and 7200 nM on BTK [2].

With `C#CC(=O)N1CCC[C@H]1c1nc(-c2ccc(C(=O)Nc3ccc(C)cn3)cc2)c(C(N)=O)n1N` [Example 26, (S)-1-amino-4-(4-((5-methylpyridin-2-yl)carbamoyl)phenyl)-2-(1-propioloylpyrrolidin-2-yl)-1H-imidazole-5-carboxamide], the figures for the concentration for half-maximal inhibition (IC50) on BTK [1] and at BTK [2] were 18.4 nM and 12.5 nM, respectively.

On BTK [2], `C#CC(=O)N1CCC[C@H]1c1nc(-c2ccc(C(=O)Nc3cc(OC)ccn3)cc2)c(C(N)=O)n1N` [Example 33, (S)-1-amino-4-(4-((4-methoxypyridin-2-yl)carbamoyl)phenyl)-2-(1-propioloylpyrrolidin-2-yl)-1H-imidazole-5-carboxamide] displayed an IC50 of 13.5 nM.

On to `CCc1ccnc(NC(=O)c2ccc(-c3nc([C@@H]4CCCN4C(=O)C=C(C)C)n(N)c3C(N)=O)cc2)c1` [Example 37, (S)-1-amino-4-(4-((4-ethylpyridin-2-yl)carbamoyl)phenyl)-2-(1-(3-methylbut-2-enoyl)pyrrolidin-2-yl)-1H-imidazole-5-carboxamide], for which the half-inhibitory concentration (IC50) at BTK [2] is 2210 nM. Against the preceding compound, the IC50 is about 160-fold higher.

Regarding `C=CC(=O)N1CCCC[C@H]1c1nc(-c2ccc(C(=O)Nc3ccccn3)cc2)c(C(N)=O)n1N` [Example 46, (S)-2-(1-acryloylpiperidin-2-yl)-1-amino-4-(4-(pyridin-2-ylcarbamoyl)phenyl)-1H-imidazole-5-carboxamide], the values for the IC50 on BTK [1] and at BTK [2] were 13.1 nM and 44.6 nM, respectively.

On to `C=CC(=O)N1CCCC[C@H]1c1nc(-c2ccc(C(=O)Nc3cc(C(C)C)ccn3)cc2)c(C(N)=O)n1N` [Example 71, (S)-2-(1-acryloylpiperidin-2-yl)-1-amino-4-(4-((4-isopropylpyridin-2-yl)carbamoyl)phenyl)-1H-imidazole-5-carboxamide], for which the IC50 against BTK [1] is 22.6 nM; on BTK [2], 55.1 nM.

Take `C=CC(=O)N1CCCC[C@H]1c1nc(-c2ccc(C(=O)Nc3cc(Cl)ccn3)cc2)c(C(N)=O)n1N` [Example 72, (S)-2-(1-acryloylpiperidin-2-yl)-1-amino-4-(4-((4-chloropyridin-2-yl)carbamoyl)phenyl)-1H-imidazole-5-carboxamide]: the 50% inhibitory concentration (IC50) in the experiment with TMD-8 is 19 nM; on BTK [1], 11.2 nM; at BTK [2], 10.1 nM.

Take `C=CC(=O)N1CCCC[C@H]1c1nc(-c2ccc(C(=O)Nc3cc(CC)ccn3)cc2)c(C(N)=O)n1N` [Example 73, (S)-2-(1-acryloylpiperidin-2-yl)-1-amino-4-(4-((4-ethylpyridin-2-yl)carbamoyl)phenyl)-1H-imidazole-5-carboxamide]: the IC50 at BTK [2] came to 9.68 nM.

In turn, `C=CC(=O)N1CCCC[C@H]1c1nc(-c2ccc(C(=O)Nc3cc(CC)ccn3)cc2)c(C(N)=O)n1NC` [Example 81, (S)-2-(1-acryloylpiperidin-2-yl)-4-(4-((4-ethylpyridin-2-yl)carbamoyl)phenyl)-1-(methylamino)-1H-imidazole-5-carboxamide] returned a 50% inhibitory concentration (IC50) at BTK [2] of 11 nM.

In turn, `C=CC(=O)N1CCCC[C@H]1c1nc(-c2ccc(C(=O)Nc3ccc(Cl)cn3)cc2)c(C(N)=O)n1N` [Example 86, (S)-2-(1-acryloylpiperidin-2-yl)-1-amino-4-(4-((5-chloropyridin-2-yl)carbamoyl)phenyl)-1H-imidazole-5-carboxamide] displayed a half-inhibitory concentration (IC50) at BTK [2] of 29.2 nM.

Regarding `C=CC(=O)N1CCCC[C@H]1c1nc(-c2ccc(C(=O)Nc3cc(Br)ccn3)cc2)c(C(N)=O)n1N` [Example 87, (S)-2-(1-acryloylpiperidin-2-yl)-1-amino-4-(4-((4-bromopyridin-2-yl)carbamoyl)phenyl)-1H-imidazole-5-carboxamide], on BTK [2], the IC50 amounted to 4.38 nM.

At BTK [2], `CC#CC(=O)N1CCCC[C@H]1c1nc(-c2ccc(C(=O)Nc3cc(Br)ccn3)cc2)c(C(N)=O)n1N` [Example 88, (S)-1-amino-4-(4-((4-bromopyridin-2-yl)carbamoyl)phenyl)-2-(1-(but-2-ynoyl)piperidin-2-yl)-1H-imidazole-5-carboxamide] yielded an IC50 of 22.6 nM.

On BTK [2], `C=CC(=O)N1CCCC[C@H]1c1nc(-c2ccc(C(=O)Nc3cc(I)ccn3)cc2)c(C(N)=O)n1N` [Example 89, (S)-2-(1-acryloylpiperidin-2-yl)-1-amino-4-(4-((4-iodopyridin-2-yl)carbamoyl)phenyl)-1H-imidazole-5-carboxamide] registered an IC50 of 6.12 nM.

For `C=CC(=O)N1CCCC[C@H]1c1nc(-c2ccc(C(=O)Nc3cc(-c4ccc(F)cc4)ccn3)cc2)c(C(N)=O)n1N` [Example 91, (S)-2-(1-acryloylpiperidin-2-yl)-1-amino-4-(4-((4-(4-fluorophenyl)pyridin-2-yl)carbamoyl)phenyl)-1H-imidazole-5-carboxamide], the IC50 on BTK [2] stood at 4.97 nM.

The compound `C=CC(=O)N1CCC[C@@H](c2nc(-c3ccc(C(=O)Nc4cc(CC)ccn4)cc3)c(C(N)=O)n2N)C1` [Example 93, (R)-2-(1-acryloylpiperidin-3-yl)-1-amino-4-(4-((4-ethylpyridin-2-yl)carbamoyl)phenyl)-1H-imidazole-5-carboxamide] displayed an IC50 on BTK [2] of 14.6 nM. This IC50 lies about 2.9-fold higher than the previous one.

As for `C=CC(=O)N1CCCC[C@H]1c1nc(-c2ccc(C(=O)Nc3nccs3)cc2)c(C(N)=O)n1N` [Example 105, (S)-2-(1-acryloylpiperidin-2-yl)-1-amino-4-(4-(thiazol-2-ylcarbamoyl)phenyl)-1H-imidazole-5-carboxamide], on BTK [2], the IC50 worked out at 18.7 nM.
